Measured values taken from US9458213B2, “Compositions and methods for diagnosing prostate cancer based on detection of SLC45A3-ELK4 fusion transcript” (CORNELL UNIVERSITY, priority 2009, dated 2016).

Key:
[1] = test system: SLC45A3-ELK4 mRNA in LNCaP cells; assay: Hormonal treatment of LNCaP cells, quantitative RT-PCR (TAQMAN) of SLC45A3-ELK4 fusion transcript; assay type: cell-based, human
Procedure: (§1) FIGS. 4a-4c. Androgen stimulation of LNCaP cells and induction of SLC45A3-ELK4 (FIG. 4a), endogenous ELK4 (FIG. 4b) mRNA and KLK3 (PSA) mRNA (FIG. 4c). Bar charts are the average fold induction in LNCaP cells treated with 1nM R1881 in the absence (black bars) or presence (gray bars) of 10 μM flutamide at the indicated time points. For flutamide treatment cells were pre-treated 2 hours with 10 μM flutamide, medium was removed and the fresh medium plus 1 nM R1881 plus 10 μM flutamide were given for the indicated time points. All experiments were run in triplicates (standard deviation indicated by the error bars).
(§2) Quantitative RT-PCR using TAQMAN technology. To quantify SLC45A3-ELK4 and endogenous ELK4 transcripts, custom designed primers and probes (SLC45A3-ELK4: primers in SLC45A3 exon 1 and ELK4 exon 2, probe in ELK4 exon 2) were employed in (ELK4, Hs00360812_m1) TAQMAN Gene Expression Assays (Applied Biosystems, Foster City, Calif.) for improved sensitivity and specificity of detection. […] Each target was run in triplicate and expression levels were calculated using the comparative Ct method (ABI Bulletin 2, Applied Biosytems) with TCFL1 as a reference gene and given as fold change over the average expression levels of benign samples. […]

[2] = test system: endogenous ELK4 mRNA in LNCaP cells; assay: Hormonal treatment of LNCaP cells, quantitative RT-PCR (TAQMAN) of endogenous ELK4; assay type: cell-based, human
Procedure: as §1, §2

[3] = LNCaP cells treated with R1881 (summary statement)
[4] = LNCaP cells, R1881 1 nM, twelve hours following treatment

C[C@]1(O)CC[C@H]2[C@@H]3CCC4=CC(=O)CCC4=C3C=C[C@@]21C [R1881]
regulation of SLC45A3-ELK4 mRNA upon treatment [1, 3]: up-regulated | induction of SLC45A3-ELK4 [1, 4]: 25 fold | regulation of endogenous ELK4 mRNA upon treatment [2, 3]: not endogenous ELK4 mRNA, was up-regulated | change in ELK4 (assay not targeting the fusion transcript) [2, 4]: no change
